Reference: patent publication US9771334B2, “Triketone compound and preparation method and use thereof” (SHANDONG CYNDA CHEMICAL CO., LTD., priority 2013, dated 2017)

Assays:
Format in all cases: in vivo
abutilon theophrasti = experiment: Herbicidal activity, pot culture method (primary and secondary screening test); conditions: sprayed at 3-leaf stage; for inhibition ratio, Abutilon theophrasti: investigated 15 days later; for herbicidal activity inhibition ratio (%), Abutilon theophrasti: primary screening, pot culture, 150 g/ha, result 15 days later
Method in brief: (§1)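 Post-emergence pot test: 3-leaf-stage weeds, tower spray of 0.2 g/L solution (DMF stock, water dilution) at 150 g/ha, greenhouse, inhibition (%) scored at 15 days. Secondary screen at a reduced dose.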

amaranthus retroflexus = experiment: as above; conditions: sprayed at 3-leaf stage; for inhibition ratio, Amaranthus retroflexus: investigated 15 days later; for herbicidal activity inhibition ratio (%), Amaranthus retroflexus: primary screening, pot culture, 150 g/ha, result 15 days later
Method in brief: as §1

digitaria sanguinalis = experiment: as above; conditions: sprayed at 3-leaf stage; for inhibition ratio, Digitaria sanguinalis: investigated 15 days later; for herbicidal activity inhibition ratio (%), Digitaria sanguinalis: primary screening, pot culture, 150 g/ha, result 15 days later
Method in brief: as §1

echinochloa crusgalli = experiment: as above; conditions: sprayed at 3-leaf stage; for inhibition ratio, Echinochloa crusgalli: investigated 15 days later; for herbicidal activity inhibition ratio (%), Echinochloa crusgalli: primary screening, pot culture, 150 g/ha, result 15 days later
Method in brief: as §1

eclipta prostrata = experiment: as above; conditions: sprayed at 3-leaf stage; for inhibition ratio, Eclipta prostrata: investigated 15 days later; for herbicidal activity inhibition ratio (%), Eclipta prostrata: primary screening, pot culture, 150 g/ha, result 15 days later
Method in brief: as §1

setaria viridis = experiment: as above; conditions: sprayed at 3-leaf stage; for inhibition ratio, Setaria viridis: investigated 15 days later; for herbicidal activity inhibition ratio (%), Setaria viridis: primary screening, pot culture, 150 g/ha, result 15 days later
Method in brief: as §1

maize = experiment: Crop safety test (pot culture method); conditions: plants with about 4-5 leaves, investigated 15 days later
Description: (§2) This test example is for describing crop safety of the compound with a structure shown in Formula (1). Crop safety test method (pot culture method): The test targets are wheat and maize. Take flowerpots with an inner diameter of 12 cm, put composite soil (vegetable garden soil:seedling matrix=1:2, v/v) into them till ¾ of flowerpot height, directly sow the crop seeds (budding rate>85%), cover them with 0.2 cm thick soil, and keep the plants for future use when they grow to have about 4-5 leaves. Each compound is dissolved in N,N-dimethylformamide at doses of 75 g/ha or 150 g/ha and diluted with distilled water containing 0.1% tween-80 emulsifier to form 0.1 g/L (75 g/ha) solution and 0.2 g/L (150 g/ha) solution respectively. The solutions are sprayed through an automatic spray tower. After the solutions on weed leaves are dried in the air, the flowerpots are moved into a greenhouse for cultivation. The result is investigated 15 days later.

wheat = experiment: Crop safety test (pot culture method); conditions: plants with about 4-5 leaves, investigated 15 days later
Description: as §2

| Compound | herbicidal activity inhibition ratio (%), Abutilon theophrasti (abutilon theophrasti) [%] | herbicidal activity inhibition ratio (%), Amaranthus retroflexus (amaranthus retroflexus) [%] | herbicidal activity inhibition ratio (%), Digitaria sanguinalis (digitaria sanguinalis) [%] | herbicidal activity inhibition ratio (%), Echinochloa crusgalli (echinochloa crusgalli) [%] | herbicidal activity inhibition ratio (%), Eclipta prostrata (eclipta prostrata) [%] | herbicidal activity inhibition ratio (%), Setaria viridis (setaria viridis) [%] | other results |
| --- | --- | --- | --- | --- | --- | --- | --- |
| Cn1c(=O)n(-c2ccccc2Cl)c(=O)c2cc(C(=O)C3=C(O)CCCC3=O)ccc21 [Compound 5] | 85 | 80 | 100 | 80 | 80 | 100 | inhibition ratio, Abutilon theophrasti (abutilon theophrasti; dose 37.5 g/ha): 60%; inhibition ratio, Abutilon theophrasti (abutilon theophrasti; dose 75 g/ha): 70%; inhibition ratio, Amaranthus retroflexus (amaranthus retroflexus; dose 37.5 g/ha): 60%; inhibition ratio, Amaranthus retroflexus (amaranthus retroflexus; dose 75 g/ha): 75%; inhibition ratio, Digitaria sanguinalis (digitaria sanguinalis; dose 37.5 g/ha): 40%; inhibition ratio, Digitaria sanguinalis (digitaria sanguinalis; dose 75 g/ha): 90%; inhibition ratio, Echinochloa crusgalli (echinochloa crusgalli; dose 37.5 g/ha): 60%; inhibition ratio, Echinochloa crusgalli (echinochloa crusgalli; dose 75 g/ha): 90%; inhibition ratio, Eclipta prostrata (eclipta prostrata; dose 37.5 g/ha): 30%; inhibition ratio, Eclipta prostrata (eclipta prostrata; dose 75 g/ha): 40%; inhibition ratio, Setaria viridis (setaria viridis; dose 37.5 g/ha): 60%; inhibition ratio, Setaria viridis (setaria viridis; dose 75 g/ha): 90%; inhibition ratio, Maize (crop safety) (maize; dose 75 g/ha): 0%; inhibition ratio, Maize (crop safety) (maize; dose 150 g/ha): 15%; inhibition ratio, Wheat (crop safety) (wheat; dose 75 g/ha): 0%; inhibition ratio, Wheat (crop safety) (wheat; dose 150 g/ha): 0% |
| COc1cccc(Cn2c(=O)n(-c3ccccc3C)c(=O)c3cc(C(=O)C4=C(O)CCCC4=O)ccc32)c1 [Compound 84] | 0 | 0 | 25 | 50 | 80 | 10 | – |
| Cc1ccccc1-n1c(=O)c2cc(C(=O)C3=C(O)CC(C)(C)CC3=O)ccc2n(Cc2ccccc2F)c1=O [Compound 85] | 0 | 20 | 0 | 20 | 0 | 10 | – |
| Cc1ccccc1-n1c(=O)c2cc(C(=O)C3=C(O)CCCC3=O)ccc2n(C)c1=S [Compound 86] | 20 | 0 | 30 | 85 | 30 | 10 | – |
| Cc1ccccc1-n1c(=O)c2cc(C(=O)C3=C(O)CC(C)(C)CC3=O)ccc2n(C)c1=S [Compound 87, 6-[(2-hydroxy-4,4-dimethyl-6-oxo-1-cyclohexenyl)carbonyl]-1-methyl-2-thio-3-(o-tolyl)-2,3-dihydroxyquinazoline-4(1H)-ketone] | 0 | 0 | 0 | 25 | 0 | 10 | – |
| COc1ccccc1-n1c(=O)c2c(C)c(C(=O)C3=C(O)CCCC3=O)ccc2n(C)c1=O [Compound 88] | 100 | 100 | 100 | 100 | 100 | 100 | – |
| CCc1ccccc1-n1c(=O)c2cc(C(=O)C3=C(O)CC(C)(C)CC3=O)ccc2n(C)c1=O [Compound 89] | 100 | 100 | 60 | 80 | 70 | 75 | – |
| CC1CC(=O)C(C(=O)c2ccc3c(c2)c(=O)n(-c2ccc(Br)cc2)c(=O)n3C)=C(O)C1 (stereo not shown) [Compound 90] | 92.5 | 20 | 93 | 90 | 83 | 85 | – |
| Cc1c(C(=O)C2=C(O)CCCC2=O)ccc2c1c(=O)n(-c1ccccc1C(F)(F)F)c(=O)n2C [Compound 92, 6-[(2-hydroxy-6-oxo-1-cyclohexenyl)carbonyl]-1,5-dimethyl-3-(2-(trifluoromethyl)phenyl)quinazoline-2,4(1H,3H)-dione] | 100 | 100 | 100 | 100 | 100 | 100 | – |
| Cc1cccc(C)c1-n1c(=O)c2c(C)c(C(=O)C3=C(O)CCCC3=O)ccc2n(C)c1=O [Compound 93] | 100 | 100 | 100 | 100 | 100 | 100 | – |
| Cn1c(=O)n(-c2c(Cl)cccc2Cl)c(=O)c2cc(C(=O)C3=C(O)CC(C)(C)CC3=O)ccc21 [Compound 94] | 95 | 95 | 88 | 93 | 98 | 95 | – |
| Cc1cccc(Cl)c1-n1c(=O)c2cc(C(=O)C3=C(O)CCCC3=O)ccc2n(C)c1=O [Compound 95] | 100 | 100 | 90 | 100 | 70 | 100 | – |
| Cc1cccc(Cl)c1-n1c(=O)c2cc(C(=O)C3=C(O)CC(C)(C)CC3=O)ccc2n(C)c1=O [Compound 96] | 95 | 100 | 30 | 55 | 83 | 95 | – |
| CC(C)c1ccccc1-n1c(=O)c2cc(C(=O)C3=C(O)CCCC3=O)ccc2n(C)c1=O [Compound 97] | 98 | 100 | 50 | 55 | 90 | 50 | – |
| Cc1cccc(C)c1-n1c(=O)c2cc(C(=O)C3=C(O)CC(C)(C)CC3=O)ccc2n(C)c1=O [Compound 98] | 100 | 100 | 50 | 85 | 88 | 80 | – |
